In article PMC4764977, “AZD8797 is an allosteric non-competitive modulator of the human CX3CR1 receptor” (Biochemical Journal, 2016):

Assays:
CX3CR1 (RPMI-8226 cells) = molecular target: T1, CX3CR1 (RPMI-8226 cells) (Homo sapiens, UniProt P49238); test: Dynamic mass redistribution (DMR), RPMI-8226 cells; format: cell-based
T1 construct: RPMI-8226 cells, a human B-lymphocyte cell line endogenously expressing human CX3CR1; CCL-155; host or cells: RPMI-8226
T1 sequence (P49238 1-355): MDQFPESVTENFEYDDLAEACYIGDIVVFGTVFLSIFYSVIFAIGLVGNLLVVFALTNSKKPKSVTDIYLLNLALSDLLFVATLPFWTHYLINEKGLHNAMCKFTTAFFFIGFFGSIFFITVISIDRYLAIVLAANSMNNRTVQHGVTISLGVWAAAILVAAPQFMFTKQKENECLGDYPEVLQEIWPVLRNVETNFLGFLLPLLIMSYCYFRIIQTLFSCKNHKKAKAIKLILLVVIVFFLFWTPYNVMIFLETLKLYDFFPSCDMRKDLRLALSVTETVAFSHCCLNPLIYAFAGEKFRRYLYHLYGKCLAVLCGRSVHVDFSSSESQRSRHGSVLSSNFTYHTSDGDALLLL
Method: (§1) CHO-hCX3CR1 cells were seeded at 12000 cells per well in DMEM with 10% FBS and RPMI-8226 cells at 8000 cells per well in RPMI 1640 medium with GlutaMAX and 20% FBS on 384-well fibronectin-coated EPIC™ biosensor plates (Corning) and cultured at 37°C for 24 h. At 18–24 h prior to compound treatment, the medium was replaced with serum-free medium with or without 100 ng·ml^−1 PTX. Cells were then washed with assay buffer (HBSS, 20 mM HEPES (pH 7.4) and 0.01% BSA) and allowed to equilibrate at 26°C for 1 h inside the EPIC™ plate reader. Following equilibration, a baseline scan was performed before adding AZD8797 or CX3CL1 using a CyBi-Well vario (CyBio). Dynamic mass redistribution (DMR) was then measured during a 60 min scan. As in the [^35S]GTPγS binding assay, the final DMSO concentration was held constant at 1%.

CX3CR1 [1] = molecular target: T2, CX3CR1 (Homo sapiens, UniProt P49238); test: Dynamic mass redistribution (DMR), CHO-hCX3CR1 cells; format: cell-based; design: host or cells: CHO-K1
T2 sequence (P49238 1-355): T1 sequence (P49238 1-355)
Method: as §1

CX3CR1 [2] = molecular target: T2, CX3CR1; test: 125I-CX3CL1 competition binding, CHO-hCX3CR1 membranes; design: host or cells: CHO-K1
Method: Adherent CHO-K1 cells stably expressing human CX3CR1 (CHO-hCX3CR1) were grown in F12 medium with GlutaMAX, 10% FBS (Sigma–Aldrich) and 400 μg·ml^−1 geneticin and harvested at 80% confluency. Cells were washed in PBS and lysed with an Ultra-Turrax Homogenizer in 50 mM Tris/HCl (pH 7.4) and 1 mM EDTA with Complete™ protease inhibitor (Roche). […] Protein concentration was determined using the BCA method (Thermo Fisher Scientific). […] The filter plate was washed in ice-cold 25 mM HEPES (pH 7.4), 5 mM MgCl2, 1 mM CaCl2 and 500 mM NaCl and dried at 50°C for 1 h. Scintillation cocktail, Optiphase Supermix (PerkinElmer) was added to each well and the radioactivity was measured using a MicroBeta Trilux reader (PerkinElmer). All analysis and calculations were performed using GraphPad Prism 6.01. Functional and competition binding data were analysed using non-linear regression and fitted to a sigmoidal dose-response with variable slope according to the following equation: […] where Y is the amount of radioligand bound (cpm) or functional effect, Top denotes maximal asymptotic binding, and Bottom denotes the minimal asymptotic binding. XC50 is either the EC50 or the IC50 value, and X is the logarithm of the test compound concentration. Ki values were calculated from IC50 values using the Cheng–Prusoff equation: […]

CX3CR1 [3] = molecular target: T2, CX3CR1; test: [3H]AZD8797 kinetic radioligand binding, CHO-hCX3CR1 membranes; design: host or cells: CHO-K1
Method: Assays were performed as described under equilibrium binding studies with the additions stated below. Association experiments on [^3H]AZD8797 were performed by adding 1 · Kd of radioligand in assay buffer in a 96-well plate. The reactions were started by addition of CHO-hCX3CR1 membranes at different time points and then incubated for between 1.5 min and 2 h at room temperature before being filtered. For the [^3H]AZD8797 dissociation experiments 1 · Kd of radioligand was incubated with CHO-hCX3CR1 membranes for 1 h at room temperature before starting the dissociation with the addition of 10 μM unlabelled AZD8797. The reactions were incubated for between 2.5 min and 3 h at room temperature before being filtered.
For the association experiments, the radioligand data were fitted to the following monophasic exponential association equation and the association rate (kon) was calculated using the added amounts of radioligand (L) and dissociation rate (koff) as constants. koff was measured in separate dissociation experiments.
The dissociation data were fitted to the monophasic exponential decay equation: […]
where Y0 is the binding (cpm) at time zero, X is the time and NS is the (non-specific) binding at infinite times. Half-life could then be calculated by dividing ln (2) by koff. Multiple compound dissociation data were fitted to the biphasic exponential decay equation: […]

CX3CR1 [4] = molecular target: T2, CX3CR1; test: 125I-CX3CL1 kinetic radioligand binding, CHO-hCX3CR1 membranes; design: host or cells: CHO-K1
Method: Incubation times ranged from 2.5 min to 4 h. For the association experiments, the radioligand data were fitted to the following monophasic exponential association equation and the association rate (kon) was calculated using the added amounts of radioligand (L) and dissociation rate (koff) as constants. koff was measured in separate dissociation experiments. The dissociation data were fitted to the monophasic exponential decay equation: where Y0 is the binding (cpm) at time zero, X is the time and NS is the (non-specific) binding at infinite times. […] Multiple compound dissociation data were fitted to the biphasic exponential decay equation: […]

[5] = in presence of 10 μM AZD8797 + 100 nM CX3CL1, two-phase model, n=3

`CC(C)C[C@H](CO)Nc1nc(S[C@@H](C)c2ccccc2)nc2nc(N)sc12` [AZD8797] was tested, and the “Effect of PTX treatment on DMR signal” value (CX3CR1 (RPMI-8226 cells); 100 ng·ml^−1 PTX) was “reduced”, the EC50 (CX3CR1 (RPMI-8226 cells); n=3) was 410 nM and the “Concentration needed for agonist response vs concentration needed to block CX3CL1 binding and functional response in membranes” value (CX3CR1 [1]; CHO-hCX3CR1 cells vs purified membranes) was “more than 10 fold”. The “Effect of PTX treatment on DMR signal” value (CX3CR1 [1]; CHO-hCX3CR1 cells, 100 ng·ml^−1 PTX) was “reduced”, the “Maximum effect, DMR” value (CX3CR1 [1]; CHO-hCX3CR1 cells, compound alone, no plateau, n=3) was 79 % of CX3CL1 and the EC50 (CX3CR1 [1]; CHO-hCX3CR1 cells, compound alone, no plateau, n=3, read-out: Potency, DMR agonism) was over 5000 nM. For the same molecule, the “Antagonist response in DMR” value (CX3CR1 [1]; challenging EC80 of CX3CL1 with different concentrations, cell line not specified, results not shown) was “could not measure any antagonist response”, the “Lower potency than unlabelled CX3CL1 in displacing 125I-CX3CL1” value (CX3CR1 [2]) was 1000 fold and the EC50 (CX3CR1 [2]; 10 pM 125I-CX3CL1, n=3, read-out: EC50, displacement of 125I-CX3CL1) was 310 nM. For the same molecule, the koff (CX3CR1 [3]; dissociation started with 10 μM unlabelled AZD8797, n=2) was 0.0007 s⁻¹, the kon (CX3CR1 [3]; from kobs (n=5) and koff, room temperature) was 233000 M⁻¹ s⁻¹ and the Dissociation half-life (CX3CR1 [3]; from koff) was “approximately 17 min”. The Kd (CX3CR1 [3]; koff/kon, read-out: Kd from rate constants) was 2.9 nM, the “k1off of 125I-CX3CL1 dissociation (fast first phase)” value (CX3CR1 [4]; [5]) was 0.45 min⁻¹ and the “k2off of 125I-CX3CL1 dissociation (second slower phase)” value (CX3CR1 [4]; [5]) was 0.0060 min⁻¹. The “Effect on 125I-CX3CL1 association rate (kon)” value (CX3CR1 [4]; results not shown) was “no effect” and the “Effect on maximal binding of 125I-CX3CL1 in association experiments” value (CX3CR1 [4]; results not shown) was “decreased”.
